Each structure is given as a SMILES string.

The first data set can be described thus: Pharmacokinetics of released PEGylated protease inhibitor following P.O. administration of prodrugs in rats. It counts as in vivo, male Sprague-Dawley rats. On the set-up: AUCall Mean: concentration or dose not given beside the values; C24 Mean: unit not given here. The conditions noted are these: concentration at 24 hours; mPEG5-atazanavir in plasma after PO administration of mPEG5-ATV or of the listed prodrug, rats (n = 4-5). As to the method: Pharmacokinetic analysis of protease inhibitors described herein was conducted. To evaluate the pharmacokinetics of PEGylated protease inhibitor conjugates with releasable lipophilic attachments, test compounds were administered to male Sprague-Dawley rats.
At various times following test article administration, serial blood samples were collected from indwelling jugular vein catheters and transferred to micro-tubes containing 7.5 μL of 20% w/v K2EDTA as an anticoagulant. Following processing of the blood samples to plasma (10 minutes at 10000 rpm, Centrifuge Model: Kubota 3500), plasma concentrations of the test article or corresponding PEGylated molecule released from the test article was measured using LC-MS/MS methods. Pharmacokinetic parameters were estimated using noncompartmental methods.
Take `CCCC(=O)OC(CN(Cc1ccc(-c2ccccn2)cc1)NC(=O)C(NC(=O)OC)C(C)(C)C)C(Cc1ccccc1)NC(=O)C(NC(=O)OCCOCCOCCOCCOCCOC)C(C)(C)C` (stereo not drawn) [C3H7CO-mPEG5-ATV, mPEG5-Atazanavir Butyrate]: the “C24 Mean” value amounted to 0.00.

The same data set, now with this note: concentration at 24 hours; mPEG6-atazanavir in plasma after PO administration of mPEG6-ATV or of the listed prodrug, rats (n = 4-5).
For the compound `CCOC(=O)OC(CN(Cc1ccc(-c2ccccn2)cc1)NC(=O)C(NC(=O)OC)C(C)(C)C)C(Cc1ccccc1)NC(=O)C(NC(=O)OCCOCCOCCOCCOCCOCCOC)C(C)(C)C` (stereo not drawn) [mPEG6-ATV-Ethyl Carbonate, mPEG6-Atazanavir Ethyl Carbonate], the “C24 Mean” value was 4.39.

The same data set, now with this note: mPEG3-atazanavir in plasma after PO administration of mPEG3-ATV or of the listed prodrug, rats (n = 4-5).
On to `COCCOCCOCCOC(=O)N[C@H](C(=O)N[C@@H](Cc1ccccc1)[C@H](CN(Cc1ccc(-c2ccccn2)cc1)NC(=O)[C@@H](NC(=O)OC)C(C)(C)C)OP(=O)(O)O)C(C)(C)C` [mPEG3-ATV-phosphate, mPEG3-atazanavir phosphate], for which the “AUCall Mean” value came out at 16.8 ng·h/mL, the “Cmax Mean” value was determined as 1.66 ng/mL, the “MRT last Mean” value was found to be 7.37 h and the “Tmax* Median” value turned out to be 1.25 h.

As to `COCCOCCOCCOC(=O)N[C@H](C(=O)N[C@@H](Cc1ccccc1)[C@H](CN(Cc1ccc(-c2ccccn2)cc1)NC(=O)[C@@H](NC(=O)OC)C(C)(C)C)OC(C)=O)C(C)(C)C` [Acetyl-mPEG3-ATV, O-Acetyl-mPEG3-Atazanavir], the “AUCall Mean” value is 5.63 ng·h/mL, the “Cmax Mean” value was determined as 2.43 ng/mL, the “MRT last Mean” value stood at 1.01 h and the “Tmax* Median” value was 0.750 h.

For the compound `COCCOCCOCCOC(=O)NC(C(=O)NC(Cc1ccccc1)C(CN(Cc1ccc(-c2ccccn2)cc1)NC(=O)C(NC(=O)OC)C(C)(C)C)OC(=O)C(N)C(C)C)C(C)(C)C.Cl` [mPEG3-ATV-L-valine, mPEG3-Atazanavir-L-valine HCl], the “AUCall Mean” value was found to be 70.4 ng·h/mL, the “Cmax Mean” value came out at 11.8 ng/mL, the “MRT last Mean” value was determined as 4.45 h and the “Tmax* Median” value turned out to be 0.500 h.

Turning to `CCC(=O)OC(CN(Cc1ccc(-c2ccccn2)cc1)NC(=O)C(NC(=O)OC)C(C)(C)C)C(Cc1ccccc1)NC(=O)C(NC(=O)OCCOCCOCCOC)C(C)(C)C` (stereo not drawn) [C2H5CO-mPEG3-ATV, mPEG3-Atazanavir Propionate], the “AUCall Mean” value turned out to be 59.6 ng·h/mL, the “Cmax Mean” value came out at 17.8 ng/mL, the “MRT last Mean” value was 2.44 h and the “Tmax* Median” value was 0.500 h.

`COCCOCCOCCOC(=O)N[C@H](C(=O)N[C@@H](Cc1ccccc1)[C@H](CN(Cc1ccc(-c2ccccn2)cc1)NC(=O)[C@@H](NC(=O)OC)C(C)(C)C)OCOCCOC)C(C)(C)C` [mPEG3 ATV-Methyl ethyl methyl ether, mPEG3-Atazanavir Methyl Ethyl Methyl Ether]: the “AUCall Mean” value worked out at 4.10 ng·h/mL, the “Cmax Mean” value is recorded as 0.951 ng/mL, the “MRT last Mean” value was 1.93 h and the “Tmax* Median” value was 2.00 h.

As for `CCCCCCCCCCCCCCCCOCC(COP(=O)(O)OC(CN(Cc1ccc(-c2ccccn2)cc1)NC(=O)C(NC(=O)OC)C(C)(C)C)C(Cc1ccccc1)NC(=O)C(NC(=O)OCCOCCOCCOC)C(C)(C)C)OC` (stereo not drawn) [PEG3-Atazanavir Monophospholipid, mPEG3-atazanavir monophospholipid], the “AUCall Mean” value was found to be 7.72 ng·h/mL, the “Cmax Mean” value was determined as 18.7 ng/mL, the “MRT last Mean” value is 0.640 h and the “Tmax* Median” value was 0.250 h.

The data set is the same for the next values; noted with them: mPEG5-atazanavir in plasma after PO administration of mPEG5-ATV or of the listed prodrug, rats (n = 4-5).
Take `COCCOCCOCCOCCOCCOC(=O)N[C@H](C(=O)N[C@@H](Cc1ccccc1)[C@@H](O)CN(Cc1ccc(-c2ccccn2)cc1)NC(=O)[C@@H](NC(=O)OC)C(C)(C)C)C(C)(C)C` [PEG5-ATV, mPEG5-atazanavir]: the “AUCall Mean” value stood at 389 ng·h/mL, the “Cmax Mean” value came to 57.6 ng/mL, the “MRT last Mean” value stood at 9.61 h and the “Tmax Median” value came out at 0.750 h.

For the compound `CCCC(=O)OC(CN(Cc1ccc(-c2ccccn2)cc1)NC(=O)C(NC(=O)OC)C(C)(C)C)C(Cc1ccccc1)NC(=O)C(NC(=O)OCCOCCOCCOCCOCCOC)C(C)(C)C` (stereo not drawn) [C3H7CO-mPEG5-ATV, mPEG5-Atazanavir Butyrate], the “AUCall Mean” value came out at 3.92 ng·h/mL, the “Cmax Mean” value is listed as 1.44 ng/mL, the “MRT last Mean” value came out at 0.984 h and the “Tmax Median” value was 1.00 h.

For the compound `COCCOCCOCCOCCOCCOC(=O)N[C@H](C(=O)N[C@@H](Cc1ccccc1)[C@H](CN(Cc1ccc(-c2ccccn2)cc1)NC(=O)[C@@H](NC(=O)OC)C(C)(C)C)OP(=O)(O)O)C(C)(C)C` [mPEG5-ATV-phosphate, mPEG5-atazanavir phosphate], the “AUCall Mean” value stood at 23.1 ng·h/mL, the “Cmax Mean” value is recorded as 1.52 ng/mL, the “MRT last Mean” value turned out to be 10.9 h and the “Tmax Median” value was determined as 7.00 h.

For the compound `CCOC(CC)OC(CN(Cc1ccc(-c2ccccn2)cc1)NC(=O)C(NC(=O)OC)C(C)(C)C)C(Cc1ccccc1)NC(=O)C(NC(=O)OCCOCCOCCOCCOCCOC)C(C)(C)C` (mixture of isomers) [ATV-1-Ethoxy propoxy-mPEG5, atazanavir-1-ethoxypropoxy-mPEG5], the “AUCall Mean” value is 235 ng·h/mL, the “Cmax Mean” value is recorded as 55.3 ng/mL, the “MRT last Mean” value was 3.53 h and the “Tmax Median” value was found to be 1.00 h.

Still in this data set, the particulars now being: mPEG6-atazanavir in plasma after PO administration of mPEG6-ATV or of the listed prodrug, rats (n = 4-5).
Consider `CCCCC(=O)OC(CN(Cc1ccc(-c2ccccn2)cc1)NC(=O)C(NC(=O)OC)C(C)(C)C)C(Cc1ccccc1)NC(=O)C(NC(=O)OCCOCCOCCOCCOCCOCCOC)C(C)(C)C` (stereo not drawn) [C4H9CO-mPEG6-ATV, C4H9CO-mPEG6-atazanavir], for which the “AUCall Mean” value is 36.5 ng·h/mL, the “Cmax Mean” value was 13.8 ng/mL, the “MRT last Mean” value was determined as 1.14 h and the “Tmax Median” value stood at 0.750 h.

With `CCNC(=O)OC(CN(Cc1ccc(-c2ccccn2)cc1)NC(=O)C(NC(=O)OC)C(C)(C)C)C(Cc1ccccc1)NC(=O)C(NC(=O)OCCOCCOCCOCCOCCOCCOC)C(C)(C)C` (stereo not drawn) [mPEG6-ATV-ethylcarbamate, mPEG6-Atazanavir-NH-ethyl carbamate], the “AUCall Mean” value was determined as 3.07 ng·h/mL, the “Cmax Mean” value was 0.634 ng/mL, the “MRT last Mean” value was 15.1 h and the “Tmax Median” value was 1.00 h.

Take `COCCOCCOCCOCCOCCOCCOC(=O)N[C@H](C(=O)N[C@@H](Cc1ccccc1)[C@H](CN(Cc1ccc(-c2ccccn2)cc1)NC(=O)[C@@H](NC(=O)OC)C(C)(C)C)OC(=O)[C@H](Cc1ccccc1)NC(=O)[C@@H](N)Cc1ccccc1)C(C)(C)C.Cl` [Phe-Phe-mPEG6-ATV, Phe-Phe-mPEG6-Atazanavir Hydrochloride]: the “AUCall Mean” value came to 279 ng·h/mL, the “Cmax Mean” value was determined as 27.0 ng/mL, the “MRT last Mean” value came to 16.2 h and the “Tmax Median” value is 2.00 h.

Turning to `CCCCCC(=O)O[C@@H](CN(Cc1ccc(-c2ccccn2)cc1)NC(=O)[C@@H](NC(=O)OC)C(C)(C)C)[C@H](Cc1ccccc1)NC(=O)[C@@H](NC(=O)OCCOCCOCCOCCOCCOCCOC)C(C)(C)C` [C5H11CO-mPEG6-ATV, C5H11CO-mPEG6-atazanavir], the “AUCall Mean” value came out at 78.1 ng·h/mL, the “Cmax Mean” value is 21.4 ng/mL, the “MRT last Mean” value is 5.01 h and the “Tmax Median” value came out at 0.500 h.

In the case of `CCOC(=O)OC(CN(Cc1ccc(-c2ccccn2)cc1)NC(=O)C(NC(=O)OC)C(C)(C)C)C(Cc1ccccc1)NC(=O)C(NC(=O)OCCOCCOCCOCCOCCOCCOC)C(C)(C)C` (stereo not drawn) [mPEG6-ATV-Ethyl Carbonate, mPEG6-Atazanavir Ethyl Carbonate], the “AUCall Mean” value was 207 ng·h/mL, the “Cmax Mean” value came to 19.9 ng/mL, the “MRT last Mean” value is 10.3 h and the “Tmax Median” value is 1.50 h.

As to `COCCOCCOCCOCCOCCOCCOC(=O)N[C@H](C(=O)N[C@@H](Cc1ccccc1)[C@H](CN(Cc1ccc(-c2ccccn2)cc1)NC(=O)[C@@H](NC(=O)OC)C(C)(C)C)OC(=O)CNC(=O)[C@@H](N)CC(C)C)C(C)(C)C.Cl` [Leu-Gly-mPEG6-ATV, Leu-Gly-mPEG6-Atazanavir Hydrochloride], the “AUCall Mean” value amounted to 294 ng·h/mL, the “Cmax Mean” value is 13.7 ng/mL, the “MRT last Mean” value stood at 27.2 h and the “Tmax Median” value was found to be 30.0 h.

`COCCOCCOCCOCCOCCOCCOC(=O)NC(C(=O)NC(Cc1ccccc1)C(CN(Cc1ccc(-c2ccccn2)cc1)NC(=O)C(NC(=O)OC)C(C)(C)C)OC(=O)C(CC(C)C)NC(=O)C(N)CC(C)C)C(C)(C)C.Cl` (stereo not drawn) [Leu-Leu-mPEG6-ATV, Leu-Leu-mPEG6-Atazanavir Hydrochloride]: the “AUCall Mean” value came to 152 ng·h/mL, the “Cmax Mean” value was found to be 14.2 ng/mL, the “MRT last Mean” value was 13.1 h and the “Tmax Median” value is 1.50 h.

For `CCC(=O)O[C@@H](CN(Cc1ccc(-c2ccccn2)cc1)NC(=O)[C@@H](NC(=O)OC)C(C)(C)C)[C@H](Cc1ccccc1)NC(=O)[C@@H](NC(=O)OCCOCCOCCOCCOCCOCCOC)C(C)(C)C` [C2H5CO-mPEG6-ATV, mPEG6-Atazanavir Propionate], the “AUCall Mean” value was 13.2 ng·h/mL, the “Cmax Mean” value is recorded as 1.86 ng/mL, the “MRT last Mean” value was found to be 8.28 h and the “Tmax Median” value was found to be 2.00 h.

As to `COCCOCCOCCOCCOCCOCCOC(=O)NC(C(=O)NC(Cc1ccccc1)C(CN(Cc1ccc(-c2ccccn2)cc1)NC(=O)C(NC(=O)OC)C(C)(C)C)OC(=O)COCCOC(=O)C(Cc1ccccc1)NC(=O)C(N)Cc1ccccc1)C(C)(C)C` (stereo not drawn) [mPEG6-ATV-CME-Phe-Phe, mPEG6-atazanavir-ethoxy-CME-Phe-Phe], the “AUCall Mean” value was determined as 102 ng·h/mL, the “Cmax Mean” value worked out at 7.06 ng/mL, the “MRT last Mean” value was determined as 21.4 h and the “Tmax Median” value stood at 3.25 h.

(Values after patent US20120108501A1, “Protease Inhibitors” (priority 2009, published 2012).)
